According to PMC4473678, “Swedish mutant APP-based BACE1 binding site peptide reduces APP β-cleavage and cerebral Aβ levels in Alzheimer’s mice” (Scientific Reports, 2015):
Entries after “also recorded” stand apart in the source; their conditions may differ.

Columns and labels:
[1] = system: BACE1 in CHO/APPwt cells; assay: IP/WB of BACE1 binding in CHO/APPwt cell lysates; parameters: species or system Chinese hamster; settings: biotin-labeled peptide 20 μM, 30 min, anti-biotin IP, listed as TAT-APPsweBBP
[2] = system: recombinant BACE1; assay: BACE1 activity (FRET) assay, cell-free; type: biochemical
Procedure: The BACE1 inhibiting activity of APP-based BACE1 site binding peptides were determined using a fluorescence resonance energy transfer (FRET) assay (Pan Vera Co., Madison, WI), which employs a recombinant baculovirus-expressed BACE1 and a specific substrate (Rh-[…]-quencher) that is based on the APPswe mutation. This specific peptide substrate becomes highly fluorescent upon enzymatic cleavage. […] Then, 10 μL of BACE1 stop buffer (2.5 M sodium acetate) was added to the mixture. Fluorescence was read using a fluorometer, with excitation at 545 nm and emission at 585 nm.

[3] = system: recombinant BACE1 protein; assay: WB of BACE1-mediated cleavage of biotin-labeled peptide, cell-free; type: biochemical; settings: 10 μg biotin-labeled TAT-APPsweBBP with 10 μL recombinant BACE1 (1.0 U/mL), 4 h, 37 °C
Procedure: In order to confirm that APPsweBBP containing the β-cleavage site could bind to and be consequently proteolyzed by BACE1, 10 μg of biotin-labeled TAT-APPsweBBP was incubated with or without 10 μL of recombinant BACE1 protein (1.0 U/mL) in BACE1 reaction buffer for 4 h at 37 °C and then subjected to WB analysis as described previously. In addition, we performed immunoprecipitation (IP) and WB analyses of this mixture with anti-BACE1 and anti-biotin antibodies to confirm that TAT-APPsweBBP, but not TAT, specifically binds to BACE1.

YGRKKRRQRRREISEVNLDAEFR [APPsweBBP conjugated with the membrane fusion fragment of HIV-1 Tat protein]
binding to BACE1 in cell lysates [1]: strongly and specifically binds to BACE1; also recorded: markedly bound to BACE1 compared to APPsweBBP
BACE1 inhibition (result in words) ([2]; FRET assay, APPsweBBP or TAT-APPsweBBP at 0.05, 0.5, 5 and 20 μM (Fig. 1)): competitively inhibits BACE1 activity; also recorded: much higher inhibiting activity than its prototype peptide
inhibition ([2]; FRET assay, peptide final concentration 20 μM, 90 min, room temperature, read-out: percentage inhibition of BACE1): 93.2 ± 2.73%
% of Inhibition of BACE1 ([2]; peptide final concentration 20 μM, FRET substrate Rh-EVNLDAEFK-quencher, 90 min, room temperature, dark, ex 545/em 585 nm, mean ± SD): 93.23 ± 2.73%
cleavage by BACE1 [3]: is cleaved by BACE1; also recorded: can also be cleaved
